{"source": "patent US20220226357A1", "about": "“METHODS FOR TREATING NEURODEGENERATIVE DISORDERS” (THOMAS JEFFERSON UNIVERSITY, priority 2019, published 2022)", "format_in_all_cases": "in vivo", "key": {"[1]": {"tested_on": "AAV-A53T α-synuclein rat model", "assay": "Beclin-1 protein expression in the SN", "settings": "2 wks after AAV-A53T vector injection; N=8/grp", "source_text": "The pathological phenotype of various storage disorders comprises increased α-Syn accumulation and aggregation and this increased α-Syn accumulation and aggregation has been linked to lysosomal dyfunction. Also, DA neuron degeneration induced by excess α-Syn in AAV-A53T rats is linked to a progressive decline in autophagic activity and in markers of lysosome function."}, "[2]": {"tested_on": "AAV-A53T α-synuclein rat model", "assay": "Stereological counting of TH+ and Nissl (cresyl violet) stained neurons in the SNc", "procedure": "(§1) Institutional Animal Care and Use Committee and conducted in accordance with the National Institutes of Health Guide for the Care and Use of Laboratory Animals. Adult male Sprague-Dawley rats (Envigo), 250 to 300 g at the time of surgery, were housed three per cage with ad libitum access to food and water during a 12-hour light/dark cycle. All surgeries were performed under general anesthesia using a mixture of ketamine (100 mg/kg, i.p.) and xylazine (10 mg/kg, i.p.). Once animals were anesthetized, the head was shaved and surgically prepped with Betadine solution and alcohol before being placed in a Kopf stereotaxic frame with the incisor bar set at approximately 3.5 mm below horizontal zero to achieve a flat skull position. The skin on the top of the skull was cut along the midline and retracted. […] Following a 5 minute wait period after completion of the injection, the needle was slowly withdrawn, the skin wound was closed, and post-surgery analgesia (meloxicam 1 mg/kg) was administered. Some rats were randomly assigned to receive daily GM1 ganglioside (porcine brain derived GM1, 30 mg/kg, i.p., Qilu Pharmaceutical Co., Ltd.) or similar volume saline injections beginning 24 hours after AAV-A53T-synuclein surgery and lasting for 6 weeks (early start group). Other animals were randomly assigned to receive daily GM1 ganglioside (porcine brain derived GM1, 30 mg/kg, i.p., Qilu Pharmaceutical Co.) or similar volume saline injections beginning 3 weeks after AAV-A53T-synuclein surgery and lasting for 5 weeks (delayed start group). […] At the conclusion of the study, animals were euthanized, fresh brains were rapidly removed, and two to three striatal samples from both sides were dissected and immediately frozen for later analyses. The remainder of the brain (including the striatum beginning at the level of the decussation of the anterior commissure) was submersion fixed in 4% paraformaldehyde.\nFixed tissue blocks were immersed in 30% sucrose for cryoprotection and sectioned frozen on a sliding microtome (30 μm section thickness for striatal sections; 40 μm section thickness for SN sections). Sections through the rostro-caudal extent of the SN were collected and every sixth section from the SN was processed for tyrosine hydroxylase (TH) immunohistochemistry to be used for stereological cell counting. Three striatal sections from approximately the level of the decussation of the anterior commissure in each case were processed for α-synuclein immunohistochemistry. For immunohistochemistry, sections were washed and permeabilized with PBS containing 0.2% Triton X-100. Endogenous peroxidase activity was quenched using 3% hydrogen peroxide in PBS containing 0.2% Triton X-100. Sections were then blocked in PBS/triton X-100 containing 10% normal goat serum and 2% BSA, followed by primary antibody incubation (TH (rabbit anti-TH, 1:2,000, Pel-Freez); α-synuclein (mouse anti-α-synuclein clone 211; 1:2000, Millipore) overnight at 4° C. The following day, sections were washed in PBS and incubated in biotinylated secondary antibody (goat-anti-rabbit 1:4000 for TH; goat-anti-mouse 1:2000 for α-synuclein 1:2000, VECTOR Laboratories), followed by additional washes and incubation in avidin biotin complex (VECTASTAIN Elite ABC system, VECTOR Laboratories). The reaction product was visualized with 3,3′-diaminobenzidine (DAB) (Immpact DAB, VECTOR Laboratories). Sections were then mounted, dehydrated, cleared and coverslipped. Sections stained for visualization of TH and to be used for stereological cell counting were counterstained with cresyl violet prior to coverslipping. Stereological estimates of the numbers of TH and cresyl violet-stained neurons in the SNc on both sides of the brain were obtained using StereoInvestigator software (MBF Bioscience) and an Olympus BX-60 microscope equipped with a Ludl motorized stage. Slides were coded and analyzed blindly. […]"}, "[3]": {"tested_on": "AAV-A53T α-synuclein rat model", "assay": "Striatal dopamine and metabolite levels (UHPLC, electrochemical detection)", "settings": "for DA / DOPAC: striatum", "procedure": "as §1\nStriatal samples were sonicated cold in 0.4 M perchloric acid for 10 seconds and centrifuged at 13,000 rpm for 10 min at 4° C. The supernatant was removed and was diluted 1:4 with Milli-Q ultrapure water (resistivity 18.2 MΩ·cm) containing internal standard (isoproterenol, 4 ng). The diluted samples were centrifuged again at 13,000 rpm for 5 min at 4° C. Samples were kept on ice prior to loading into the refrigerated (4° C.) autosampler integrated with the HPLC system. An ALEXYS UHPLC system (Antec Scientific) with electrochemical detection (Decade Elite electrochemical detector with a glassy carbon electrode) was used for the analyses. […] The mobile phase (pH 3.0) consisted of 100 mM phosphoric acid, 100 mM citric acid, 0.1 mM EDTA.Na2, 600 mg/L octanesulfonic acid sodium salt, and 8% acetonitrile. Pump flow rate was 50 μl/min. The analytes were detected at an oxidation potential of 600 mV against a reference electrode at 0 mV. Data were acquired and processed using Clarity software (v7.4.1) (DataApex). Peak heights were compared against internal standard curves to determine the concentrations of DA and metabolites in each sample."}, "[4]": {"settings": "AAV-A53T/Delayed GM1, injected side"}, "[5]": {"settings": "AAV-A53T/Delayed GM1, non-injected side"}, "[6]": {"settings": "AAV-A53T/Early GM1, injected side"}, "[7]": {"settings": "AAV-A53T/Early GM1, non-injected side"}, "[8]": {"settings": "delayed start GM1, 8 weeks after AAV-A53T"}, "[9]": {"settings": "early start GM1, 6 weeks after AAV-A53T"}}, "note": "Entries after “also recorded” stand apart in the source; their conditions may differ. Marks after values point to notes of the source that are not given here.", "data": [{"substance": "GM1 ganglioside", "values": [{"measurement": "SN Beclin-1 protein expression, GM1 vs saline", "setting": "[1]", "value": "reversed increased SN Beclin-1 levels; also recorded: significantly increased in saline-treated vs. GM1-treated animals"}, {"measurement": "Nissl+ Cells", "setting": "[2]; [4]", "value": "3335 ± 148^d"}, {"measurement": "TH+ Cells", "setting": "[2]; [4]", "value": "2814 ± 134^c"}, {"measurement": "Nissl+ Cells", "setting": "[2]; [5]", "value": "6113 ± 132"}, {"measurement": "TH+ Cells", "setting": "[2]; [5]", "value": "5685 ± 143"}, {"measurement": "Nissl+ Cells", "setting": "[2]; [6]", "value": "3557 ± 172^b"}, {"measurement": "TH+ Cells", "setting": "[2]; [6]", "value": "3144 ± 159^a"}, {"measurement": "Nissl+ Cells", "setting": "[2]; [7]", "value": "6074 ± 174"}, {"measurement": "TH+ Cells", "setting": "[2]; [7]", "value": "5601 ± 135"}, {"measurement": "loss of TH+ neurons compared to the contralateral side", "setting": "[2]; delayed start GM1, 8 weeks", "value": "50.6±2.1", "unit": "%"}, {"measurement": "loss of cresyl violet-stained neurons compared to the contralateral side", "setting": "[2]; delayed start GM1, 8 weeks", "value": "45.5±2.1", "unit": "%"}, {"measurement": "loss of TH+ neurons compared to the non-injected side", "setting": "[2]; early start GM1, 6 weeks", "value": "43.7±2.7", "unit": "%"}, {"measurement": "loss of cresyl violet-stained neurons compared to the contralateral side", "setting": "[2]; early start GM1, 6 weeks", "value": "41.9±2.5", "unit": "%"}, {"measurement": "DOPAC levels on the injected side, % of non-injected side", "setting": "[3]; [8]", "value": "82.0±8.4", "unit": "%"}, {"measurement": "DOPAC/DA ratio on the injected side, % of contralateral side", "setting": "[3]; [8]", "value": "150.0±10.9", "unit": "%"}, {"measurement": "striatal DA levels on the injected side, % of contralateral side", "setting": "[3]; [8]", "value": "55.0±3.9", "unit": "%"}, {"measurement": "DOPAC/DA ratio on the injected side, % of contralateral side", "setting": "[3]; [9]", "value": "112.3±9.5", "unit": "%"}, {"measurement": "striatal DA levels on the injected side, % of contralateral side", "setting": "[3]; [9]", "value": "64.0±3.5", "unit": "%"}, {"measurement": "DA", "setting": "[3]; [4]", "value": "5.87 ± 0.47^b μg/g wet tissue"}, {"measurement": "DOPAC", "setting": "[3]; AAV-A53T/Delayed GM1, injected side, two outlier samples removed", "value": "0.93 ± 0.12^ μg/g wet tissue"}, {"measurement": "DA", "setting": "[3]; [5]", "value": "10.73 ± 0.54", "unit": "μg/g wet tissue"}, {"measurement": "DOPAC", "setting": "[3]; AAV-A53T/Delayed GM1, non-injected side, two outlier samples removed", "value": "1.18 ± 0.10^ μg/g wet tissue"}, {"measurement": "DA", "setting": "[3]; [6]", "value": "7.29 ± 0.45^a μg/g wet tissue"}, {"measurement": "DOPAC", "setting": "[3]; [6]", "value": "0.85 ± 0.09", "unit": "μg/g wet tissue"}, {"measurement": "DA", "setting": "[3]; [7]", "value": "11.43 ± 0.32", "unit": "μg/g wet tissue"}, {"measurement": "DOPAC", "setting": "[3]; [7]", "value": "1.33 ± 0.10", "unit": "μg/g wet tissue"}]}]}
